What was measured:
Type in all cases: in vivo
[1] = tested on: velvetleaf (Abutilon theophrasti); assay: Test B preemergence
Outline: (§1)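 Post-treatment, species sat 13–15 days under greenhouse conditions before visual scoring against controls, 0 (no effect) through 100 (complete control). Application preemergence to sown seeds or postemergence at 1- to 4-leaf stage, using a non-phytotoxic solvent/surfactant formulation.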

[2] = tested on: giant foxtail (Setaria faberii); assay: Test B preemergence
Outline: as §1

[3] = tested on: Surinam grass (Brachiaria decumbens); assay: Test B preemergence
Outline: as §1

[4] = tested on: lambsquarters (Chenopodium album); assay: Test B preemergence
Outline: as §1

[5] = tested on: crabgrass (Digitaria sanguinalis); assay: Test B preemergence
Outline: as §1

[6] = tested on: morning glory (Ipomoea hederacea); assay: Test B preemergence
Outline: as §1

[7] = tested on: cocklebur (Xanthium strumarium); assay: Test B preemergence
Outline: as §1

[8] = tested on: barnyardgrass (Echinochloa crus-galli); assay: Test B preemergence
Outline: as §1

rice (Oryza saliva) [9] = assay: Test B preemergence
Outline: as §1

corn (Zea mays) [10] = assay: Test B preemergence
Outline: as §1

[11] = tested on: pigweed (Amaranthus retroflexus); assay: Test B preemergence
Outline: as §1

[12] = tested on: smallflower flatsedge (Cyperus difformis); assay: Test C flooded paddy test; conditions: for Flatsedge plant response rating: Flooded Paddy, scale 0 to 100, 0 no effect, 100 complete control; for Plant response rating, Flatsedge: scale 0 to 100 (0 no effect, 100 complete control)
Outline: (§2)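 Visual ratings (0 = no effect, 100 = complete control) were made 12–14 days after treatment, relative to greenhouse controls. Plants in the flooded paddy test were rice, smallflower flatsedge, duck salad and barnyardgrass, treated at the 2-leaf stage.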

[13] = tested on: duck salad (Heteranthera limosa); assay: Test C flooded paddy test; conditions: for Ducksalad plant response rating: Flooded Paddy, scale 0 to 100, 0 no effect, 100 complete control; for Plant response rating, Ducksalad: scale 0 to 100 (0 no effect, 100 complete control)
Outline: as §2

[14] = tested on: barnyardgrass (Echinochloa crus-galli); assay: Test C flooded paddy test; conditions: for Barnyardgrass plant response rating: Flooded Paddy, scale 0 to 100, 0 no effect, 100 complete control; for Plant response rating, Barnyardgrass: scale 0 to 100 (0 no effect, 100 complete control)
Outline: as §2

rice (Oryza saliva) [15] = assay: Test C flooded paddy test; conditions: for Rice plant response rating: Flooded Paddy, scale 0 to 100, 0 no effect, 100 complete control; for Plant response rating, Rice: scale 0 to 100 (0 no effect, 100 complete control)
Outline: as §2

[16] = tested on: velvetleaf (Abutilon theophrasti); assay: Test B postemergence; conditions: Rate 125 g/ha, scale 0 to 100, 0 no effect, 100 complete control
Outline: as §1

[17] = tested on: giant foxtail (Setaria faberii); assay: Test B postemergence; conditions: Rate 125 g/ha, scale 0 to 100, 0 no effect, 100 complete control
Outline: as §1

[18] = tested on: Surinam grass (Brachiaria decumbens); assay: Test B postemergence
Outline: as §1

[19] = tested on: wheat (Triticum aestivum); assay: Test B postemergence; conditions: Rate 125 g/ha, scale 0 to 100, 0 no effect, 100 complete control
Outline: as §1

[20] = tested on: lambsquarters (Chenopodium album); assay: Test B postemergence; conditions: Rate 125 g/ha, scale 0 to 100, 0 no effect, 100 complete control
Outline: as §1

[21] = tested on: crabgrass (Digitaria sanguinalis); assay: Test B postemergence; conditions: Rate 125 g/ha, scale 0 to 100, 0 no effect, 100 complete control
Outline: as §1

wild oat (Avena fatua) = assay: Test B postemergence; conditions: Rate 125 g/ha, scale 0 to 100, 0 no effect, 100 complete control
Outline: as §1

[22] = tested on: morning glory (Ipomoea hederacea); assay: Test B postemergence; conditions: Rate 125 g/ha, scale 0 to 100, 0 no effect, 100 complete control
Outline: as §1

[23] = tested on: cocklebur (Xanthium strumarium); assay: Test B postemergence
Outline: as §1

[24] = tested on: barnyardgrass (Echinochloa crus-galli); assay: Test B postemergence
Outline: as §1

[25] = tested on: blackgrass (Alopecurus myosuroides); assay: Test B postemergence
Outline: as §1

corn (Zea mays) [26] = assay: Test B postemergence
Outline: as §1

[27] = tested on: pigweed (Amaranthus retroflexus); assay: Test B postemergence; conditions: Rate 125 g/ha, scale 0 to 100, 0 no effect, 100 complete control
Outline: as §1

[28] = Preemergence, Rate 500 g/ha, scale 0 to 100, 0 no effect, 100 complete control
[29] = preemergence, Rate 125 g/ha, scale of 0 to 100 where 0 is no effect and 100 is complete control, 13 to 15 days
[30] = flooded paddy test, Rate 62 g/ha
[31] = flooded paddy test, Rate 125 g/ha
[32] = Rate 125 g/ha, scale 0 to 100, 0 no effect, 100 complete control
[33] = Rate 500 g/ha, scale 0 to 100, 0 is no effect, 100 is complete control, 13 to 15 days
[34] = flooded paddy test, Rate 250 g/ha
[35] = flooded paddy test, Rate 62 g/ha, visually evaluated after 12 to 14 days, 0 = no effect, 100 = complete control

CCOc1cccc(N2CCC(n3ccc(C(C)CC)n3)C2=O)c1 (stereo not shown) [Compound 126]
Plant response rating, Velvetleaf [1, 28]: 60 | Plant response rating, Velvetleaf [1, 29]: 0 | Plant response rating, Foxtail, Giant [2, 28]: 100 | Plant response rating, Foxtail, Giant [2, 29]: 100 | Plant response rating, Surinam grass [3, 28]: 100 | Plant response rating, Surinam grass [3, 29]: 100 | Plant response rating, Lambsquarters [4, 28]: 100 | Plant response rating, Lambsquarters [4, 29]: 100 | Plant response rating, Crabgrass [5, 28]: 100 | Plant response rating, Crabgrass [5, 29]: 100 | Plant response rating, Morningglory [6, 28]: 100 | Plant response rating, Morningglory [6, 29]: 70 | Plant response rating, Cocklebur [7, 28]: 70 | Plant response rating, Cocklebur [7, 29]: 50 | Plant response rating, Barnyardgrass [8, 28]: 100 | Plant response rating, Barnyardgrass [8, 29]: 100 | Plant response rating, Rice (rice (Oryza saliva) [9]; [28]): 100 | Plant response rating, Rice (rice (Oryza saliva) [9]; [29]): 70 | Plant response rating, Corn (corn (Zea mays) [10]; [28]): 50 | Plant response rating, Corn (corn (Zea mays) [10]; [29]): 30 | Plant response rating, Pigweed [11, 28]: 100 | Plant response rating, Pigweed [11, 29]: 100 | Flatsedge plant response rating ([12]; Rate 250 g/ha): 100 | Flatsedge plant response rating ([12]; Rate 500 g/ha): 100 | Plant response rating, Flatsedge [12, 30]: 100 | Plant response rating, Flatsedge [12, 31]: 100 | Ducksalad plant response rating ([13]; Rate 250 g/ha): 100 | Ducksalad plant response rating ([13]; Rate 500 g/ha): 100 | Plant response rating, Ducksalad [13, 30]: 60 | Plant response rating, Ducksalad [13, 31]: 100 | Barnyardgrass plant response rating ([14]; Rate 250 g/ha): 100 | Barnyardgrass plant response rating ([14]; Rate 500 g/ha): 100 | Plant response rating, Barnyardgrass [14, 30]: 35 | Plant response rating, Barnyardgrass [14, 31]: 100 | Rice plant response rating (rice (Oryza saliva) [15]; Rate 250 g/ha): 20 | Rice plant response rating (rice (Oryza saliva) [15]; Rate 500 g/ha): 60 | Plant response rating, Rice (rice (Oryza saliva) [15]; [30]): 0 | Plant response rating, Rice (rice (Oryza saliva) [15]; [31]): 20 | Plant response rating, Velvetleaf [16]: 0 | Plant response rating, Foxtail, Giant [17]: 0 | Plant response rating, Surinam grass [18, 32]: 0 | Plant response rating, Surinam grass [18, 33]: 0 | Plant response rating, Wheat [19]: 0 | Plant response rating, Lambsquarters [20]: 100 | Plant response rating, Crabgrass [21]: 0 | Plant response rating, Wild Oat (wild oat (Avena fatua)): 0 | Plant response rating, Morningglory [22]: 0 | Plant response rating, Cocklebur [23, 32]: 0 | Plant response rating, Cocklebur [23, 33]: 70 | Plant response rating, Barnyardgrass [24, 32]: 0 | Plant response rating, Barnyardgrass [24, 33]: 80 | Plant response rating, Blackgrass [25, 32]: 0 | Plant response rating, Blackgrass [25, 33]: 0 | Plant response rating, Corn (corn (Zea mays) [26]; [32]): 0 | Plant response rating, Corn (corn (Zea mays) [26]; [33]): 0 | Plant response rating, Pigweed [27]: 30

COc1cc(N2CCC(n3ccc(C(C)(C)C)n3)C2=O)cc2ccccc12 (stereo not shown) [Compound 136]
Plant response rating, Velvetleaf [1, 28]: 0 | Plant response rating, Velvetleaf [1, 29]: 0 | Plant response rating, Foxtail, Giant [2, 28]: 0 | Plant response rating, Foxtail, Giant [2, 29]: 0 | Plant response rating, Surinam grass [3, 28]: 0 | Plant response rating, Surinam grass [3, 29]: 0 | Plant response rating, Lambsquarters [4, 28]: 100 | Plant response rating, Lambsquarters [4, 29]: 100 | Plant response rating, Crabgrass [5, 28]: 70 | Plant response rating, Crabgrass [5, 29]: 0 | Plant response rating, Morningglory [6, 28]: 0 | Plant response rating, Morningglory [6, 29]: 0 | Plant response rating, Cocklebur [7, 28]: 0 | Plant response rating, Cocklebur [7, 29]: 0 | Plant response rating, Barnyardgrass [8, 28]: 0 | Plant response rating, Barnyardgrass [8, 29]: 0 | Plant response rating, Rice (rice (Oryza saliva) [9]; [28]): 0 | Plant response rating, Rice (rice (Oryza saliva) [9]; [29]): 0 | Plant response rating, Corn (corn (Zea mays) [10]; [28]): 0 | Plant response rating, Corn (corn (Zea mays) [10]; [29]): 0 | Plant response rating, Pigweed [11, 28]: 60 | Plant response rating, Pigweed [11, 29]: 0 | Flatsedge plant response rating ([12]; Rate 500 g/ha): 0 | Plant response rating, Flatsedge [12, 31]: 0 | Plant response rating, Flatsedge [12, 34]: 0 | Plant response rating (scale 0 to 100), Flatsedge [12, 35]: 0 | Ducksalad plant response rating ([13]; Rate 500 g/ha): 0 | Plant response rating, Ducksalad [13, 31]: 0 | Plant response rating, Ducksalad [13, 34]: 0 | Plant response rating (scale 0 to 100), Ducksalad [13, 35]: 0 | Barnyardgrass plant response rating ([14]; Rate 500 g/ha): 0 | Plant response rating, Barnyardgrass [14, 31]: 0 | Plant response rating, Barnyardgrass [14, 34]: 0 | Plant response rating (scale 0 to 100), Barnyardgrass [14, 35]: 0 | Rice plant response rating (rice (Oryza saliva) [15]; Rate 500 g/ha): 0 | Plant response rating, Rice (rice (Oryza saliva) [15]; [31]): 0 | Plant response rating, Rice (rice (Oryza saliva) [15]; [34]): 0 | Plant response rating (scale 0 to 100), Rice (rice (Oryza saliva) [15]; [35]): 0 | Plant response rating, Velvetleaf [16]: 0 | Plant response rating, Foxtail, Giant [17]: 0 | Plant response rating, Surinam grass [18, 32]: 0 | Plant response rating, Surinam grass [18, 33]: 0 | Plant response rating, Wheat [19]: 0 | Plant response rating, Lambsquarters [20]: 0 | Plant response rating, Crabgrass [21]: 0 | Plant response rating, Wild Oat (wild oat (Avena fatua)): 0 | Plant response rating, Morningglory [22]: 0 | Plant response rating, Cocklebur [23, 32]: 0 | Plant response rating, Cocklebur [23, 33]: 0 | Plant response rating, Barnyardgrass [24, 32]: 0 | Plant response rating, Barnyardgrass [24, 33]: 0 | Plant response rating, Blackgrass [25, 32]: 0 | Plant response rating, Blackgrass [25, 33]: 0 | Plant response rating, Corn (corn (Zea mays) [26]; [32]): 0 | Plant response rating, Corn (corn (Zea mays) [26]; [33]): 0 | Plant response rating, Pigweed [27]: 0
